Laboratory results reported in ChEMBL document CHEMBL4507291 (2021).

Legend:
[1] = molecular target: 5-hydroxytryptamine receptor 2A (Homo sapiens) (UniProt P28223); settings: Compound concentration 10.0 uM
[2] = molecular target: Phosphodiesterase 3 (Homo sapiens) (UniProt Q14432+Q13370); assay: Inhibition of Phosphodiesterase PDE3 at compound concentration of 10.0 uM in the Eurofins-Panlabs enzyme assay (Eurofins_assay_152000); type: protein assay; set-up: substrate with concentration 1.01 uM [3H] cAMP + cAMP, incubation time 20 min, incubation temperature 25 C; settings: Compound concentration 10.0 uM
[3] = molecular target: Testis-specific serine/threonine-protein kinase 2 (Homo sapiens) (UniProt Q96PF2); assay: STK22B (TSSK2) Kinase screen; settings: Compound concentration 1.0 uM
[4] = molecular target: Mitogen-activated protein kinase 9 (Homo sapiens) (UniProt P45984); assay: MAPK9 (JNK2) Kinase screen; settings: Compound concentration 1.0 uM
[5] = molecular target: T1, cGMP-dependent protein kinase 1 (Homo sapiens) (UniProt Q13976); assay: PRKG1 Kinase screen; settings: Compound concentration 1.0 uM
T1 sequence (whole entry): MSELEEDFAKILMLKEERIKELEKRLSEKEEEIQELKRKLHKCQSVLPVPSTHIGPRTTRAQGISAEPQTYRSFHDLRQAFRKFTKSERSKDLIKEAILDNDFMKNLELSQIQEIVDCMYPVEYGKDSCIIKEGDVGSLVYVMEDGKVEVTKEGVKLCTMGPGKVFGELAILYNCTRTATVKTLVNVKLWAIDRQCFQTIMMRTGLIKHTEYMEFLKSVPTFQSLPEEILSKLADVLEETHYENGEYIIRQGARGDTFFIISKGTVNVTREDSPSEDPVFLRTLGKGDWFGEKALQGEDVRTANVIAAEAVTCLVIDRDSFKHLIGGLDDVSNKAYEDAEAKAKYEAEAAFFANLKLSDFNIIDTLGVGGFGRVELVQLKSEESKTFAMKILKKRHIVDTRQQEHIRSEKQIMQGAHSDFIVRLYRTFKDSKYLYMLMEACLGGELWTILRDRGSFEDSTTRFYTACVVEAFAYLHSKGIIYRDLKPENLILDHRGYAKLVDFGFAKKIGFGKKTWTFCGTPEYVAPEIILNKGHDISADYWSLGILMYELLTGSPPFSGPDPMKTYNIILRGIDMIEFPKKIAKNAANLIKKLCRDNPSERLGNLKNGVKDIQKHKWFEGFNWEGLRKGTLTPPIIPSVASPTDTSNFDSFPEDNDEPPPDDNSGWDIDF

[6] = molecular target: Leukocyte tyrosine kinase receptor (Homo sapiens) (UniProt P29376); assay: LTK (TYK1) Kinase screen; settings: Compound concentration 1.0 uM
[7] = molecular target: Melanocortin receptor 5 (Homo sapiens) (UniProt P33032); assay: Inhibition of Melanocortin MC5 at 10 µM in the Eurofins-Panlabs radioligand binding assay (Eurofins_assay_251400); set-up: ligand concentration 0.035 nM; settings: Compound concentration 10.0 uM
[8] = molecular target: Phosphatidylinositol 4-phosphate 3-kinase C2 domain-containing subunit alpha (Homo sapiens) (UniProt O00443); assay: PIK3C2A (PI3K-C2 alpha) Kinase screen; settings: Compound concentration 1.0 uM
[9] = molecular target: T2, Ephrin type-A receptor 1 (Homo sapiens) (UniProt P21709); assay: EPHA1 Kinase screen; settings: Compound concentration 1.0 uM
T2 sequence (whole entry): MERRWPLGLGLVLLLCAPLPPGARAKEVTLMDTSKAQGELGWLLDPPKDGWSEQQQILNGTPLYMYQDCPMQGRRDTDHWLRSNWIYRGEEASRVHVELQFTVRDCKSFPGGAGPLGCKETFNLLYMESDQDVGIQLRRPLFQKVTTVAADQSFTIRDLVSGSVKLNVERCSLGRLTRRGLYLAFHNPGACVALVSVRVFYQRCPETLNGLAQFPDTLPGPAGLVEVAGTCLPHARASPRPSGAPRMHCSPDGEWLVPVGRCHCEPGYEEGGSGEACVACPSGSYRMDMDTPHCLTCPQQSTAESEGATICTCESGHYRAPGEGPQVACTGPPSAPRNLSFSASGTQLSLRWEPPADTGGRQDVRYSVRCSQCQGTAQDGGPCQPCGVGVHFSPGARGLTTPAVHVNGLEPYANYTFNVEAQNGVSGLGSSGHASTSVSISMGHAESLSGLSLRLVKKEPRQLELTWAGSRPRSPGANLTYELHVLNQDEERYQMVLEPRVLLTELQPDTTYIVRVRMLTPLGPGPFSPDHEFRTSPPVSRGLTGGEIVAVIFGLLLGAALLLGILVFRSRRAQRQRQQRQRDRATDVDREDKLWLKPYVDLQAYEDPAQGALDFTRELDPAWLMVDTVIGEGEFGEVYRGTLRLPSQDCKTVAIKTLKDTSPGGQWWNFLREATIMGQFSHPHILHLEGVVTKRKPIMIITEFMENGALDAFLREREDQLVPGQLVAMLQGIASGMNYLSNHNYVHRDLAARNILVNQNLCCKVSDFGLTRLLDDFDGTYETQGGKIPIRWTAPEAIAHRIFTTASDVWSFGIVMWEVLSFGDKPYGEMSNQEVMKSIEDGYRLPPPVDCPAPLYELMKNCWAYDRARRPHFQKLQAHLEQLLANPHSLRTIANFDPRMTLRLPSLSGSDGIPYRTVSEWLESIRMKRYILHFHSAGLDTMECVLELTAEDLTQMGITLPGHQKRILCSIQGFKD

[10] = molecular target: Rho-associated protein kinase 2 (Homo sapiens) (UniProt O75116); assay: ROCK2 Kinase screen; settings: Compound concentration 1.0 uM
[11] = molecular target: Serine/threonine-protein kinase MRCK beta (Homo sapiens) (UniProt Q9Y5S2); assay: CDC42 BPB (MRCKB) Kinase screen; settings: Compound concentration 1.0 uM
[12] = molecular target: T3, Tyrosine-protein kinase ZAP-70 (Homo sapiens) (UniProt P43403); assay: ZAP70 Kinase screen; settings: Compound concentration 1.0 uM
T3 sequence (whole entry): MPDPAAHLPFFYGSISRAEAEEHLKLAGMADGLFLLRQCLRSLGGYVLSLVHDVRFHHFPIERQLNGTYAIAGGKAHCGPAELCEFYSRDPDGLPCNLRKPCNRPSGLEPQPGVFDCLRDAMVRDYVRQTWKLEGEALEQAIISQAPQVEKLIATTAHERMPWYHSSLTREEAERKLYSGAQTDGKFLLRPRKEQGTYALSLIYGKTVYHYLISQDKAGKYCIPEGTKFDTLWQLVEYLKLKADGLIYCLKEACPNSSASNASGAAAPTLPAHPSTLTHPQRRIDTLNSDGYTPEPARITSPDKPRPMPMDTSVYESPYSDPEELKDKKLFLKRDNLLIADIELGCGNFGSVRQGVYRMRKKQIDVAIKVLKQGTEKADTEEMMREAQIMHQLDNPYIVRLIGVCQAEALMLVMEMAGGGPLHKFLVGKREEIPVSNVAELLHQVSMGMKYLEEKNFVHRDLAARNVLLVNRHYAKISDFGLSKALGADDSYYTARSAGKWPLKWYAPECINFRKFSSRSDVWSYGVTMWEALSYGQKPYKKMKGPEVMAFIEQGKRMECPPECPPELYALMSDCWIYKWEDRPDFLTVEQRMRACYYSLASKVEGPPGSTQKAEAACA

Measured: inhibition

Chain of Leukocyte tyrosine kinase receptor (Homo sapiens) (P29376 whole entry): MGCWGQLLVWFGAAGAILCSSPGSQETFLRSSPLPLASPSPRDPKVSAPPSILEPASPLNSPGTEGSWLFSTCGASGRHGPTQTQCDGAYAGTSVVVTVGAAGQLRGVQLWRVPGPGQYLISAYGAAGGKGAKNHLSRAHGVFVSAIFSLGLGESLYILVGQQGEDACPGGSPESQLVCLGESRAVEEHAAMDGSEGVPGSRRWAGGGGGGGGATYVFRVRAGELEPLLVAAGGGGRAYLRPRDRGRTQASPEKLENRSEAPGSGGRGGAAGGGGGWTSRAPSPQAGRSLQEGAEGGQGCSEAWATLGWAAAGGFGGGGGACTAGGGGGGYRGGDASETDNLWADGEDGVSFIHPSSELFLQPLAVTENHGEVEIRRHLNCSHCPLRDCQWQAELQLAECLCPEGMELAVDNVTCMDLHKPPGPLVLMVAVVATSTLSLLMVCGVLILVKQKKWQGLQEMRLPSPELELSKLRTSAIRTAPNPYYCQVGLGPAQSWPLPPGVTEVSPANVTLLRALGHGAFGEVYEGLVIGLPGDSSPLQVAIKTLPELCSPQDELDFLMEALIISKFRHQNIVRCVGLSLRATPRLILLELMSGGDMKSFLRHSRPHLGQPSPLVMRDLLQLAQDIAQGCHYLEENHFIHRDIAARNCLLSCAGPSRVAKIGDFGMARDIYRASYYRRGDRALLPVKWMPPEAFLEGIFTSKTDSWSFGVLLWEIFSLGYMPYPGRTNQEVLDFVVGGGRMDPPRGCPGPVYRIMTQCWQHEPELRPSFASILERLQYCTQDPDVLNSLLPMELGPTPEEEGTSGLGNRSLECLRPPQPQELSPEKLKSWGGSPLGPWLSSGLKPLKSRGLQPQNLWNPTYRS
Chain of Phosphatidylinositol 4-phosphate 3-kinase C2 domain-containing subunit alpha (Homo sapiens) (O00443 whole entry, the tested form may be a part): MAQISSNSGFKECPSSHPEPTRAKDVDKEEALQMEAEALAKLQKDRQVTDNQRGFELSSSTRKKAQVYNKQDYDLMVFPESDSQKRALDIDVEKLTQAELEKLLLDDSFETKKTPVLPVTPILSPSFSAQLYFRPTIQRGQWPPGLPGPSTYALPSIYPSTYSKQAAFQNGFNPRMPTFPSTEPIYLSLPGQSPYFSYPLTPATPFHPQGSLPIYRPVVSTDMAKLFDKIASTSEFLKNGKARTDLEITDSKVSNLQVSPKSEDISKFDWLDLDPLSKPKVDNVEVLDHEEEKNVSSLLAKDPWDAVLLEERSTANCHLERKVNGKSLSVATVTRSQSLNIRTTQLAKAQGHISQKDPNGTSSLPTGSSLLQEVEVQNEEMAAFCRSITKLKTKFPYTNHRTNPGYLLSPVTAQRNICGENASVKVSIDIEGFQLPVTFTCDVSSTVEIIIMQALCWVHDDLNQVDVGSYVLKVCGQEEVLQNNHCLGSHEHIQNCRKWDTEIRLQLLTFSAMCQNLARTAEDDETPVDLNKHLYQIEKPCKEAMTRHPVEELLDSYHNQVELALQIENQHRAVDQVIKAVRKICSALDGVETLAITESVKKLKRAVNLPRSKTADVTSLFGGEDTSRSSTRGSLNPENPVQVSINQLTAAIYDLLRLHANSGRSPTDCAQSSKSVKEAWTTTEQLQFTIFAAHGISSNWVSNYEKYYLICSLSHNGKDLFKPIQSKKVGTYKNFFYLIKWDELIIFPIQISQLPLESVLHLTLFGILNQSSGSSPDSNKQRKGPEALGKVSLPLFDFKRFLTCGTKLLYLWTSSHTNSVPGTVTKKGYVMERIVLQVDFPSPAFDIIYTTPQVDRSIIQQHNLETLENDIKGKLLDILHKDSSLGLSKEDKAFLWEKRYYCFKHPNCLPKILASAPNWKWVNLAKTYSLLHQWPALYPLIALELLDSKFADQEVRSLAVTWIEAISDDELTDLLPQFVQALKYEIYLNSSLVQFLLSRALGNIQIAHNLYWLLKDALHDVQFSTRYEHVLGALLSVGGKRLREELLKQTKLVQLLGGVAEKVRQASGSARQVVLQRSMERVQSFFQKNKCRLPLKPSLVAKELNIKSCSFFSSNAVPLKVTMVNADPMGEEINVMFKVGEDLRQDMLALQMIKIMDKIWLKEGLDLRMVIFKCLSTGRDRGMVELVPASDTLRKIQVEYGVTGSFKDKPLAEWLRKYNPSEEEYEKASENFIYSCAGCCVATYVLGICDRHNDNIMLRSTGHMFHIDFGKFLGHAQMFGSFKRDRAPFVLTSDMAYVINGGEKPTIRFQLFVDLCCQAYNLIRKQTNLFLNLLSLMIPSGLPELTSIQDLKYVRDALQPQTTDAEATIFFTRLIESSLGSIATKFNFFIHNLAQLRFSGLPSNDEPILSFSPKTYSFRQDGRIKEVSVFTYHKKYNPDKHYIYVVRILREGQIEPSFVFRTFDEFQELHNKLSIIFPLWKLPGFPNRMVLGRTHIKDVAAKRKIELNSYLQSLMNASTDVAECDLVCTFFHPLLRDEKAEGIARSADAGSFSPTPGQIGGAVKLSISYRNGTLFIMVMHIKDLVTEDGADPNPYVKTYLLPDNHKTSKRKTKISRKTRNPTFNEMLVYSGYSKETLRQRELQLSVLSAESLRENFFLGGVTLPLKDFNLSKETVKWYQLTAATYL
Chain of Testis-specific serine/threonine-protein kinase 2 (Homo sapiens) (Q96PF2 whole entry): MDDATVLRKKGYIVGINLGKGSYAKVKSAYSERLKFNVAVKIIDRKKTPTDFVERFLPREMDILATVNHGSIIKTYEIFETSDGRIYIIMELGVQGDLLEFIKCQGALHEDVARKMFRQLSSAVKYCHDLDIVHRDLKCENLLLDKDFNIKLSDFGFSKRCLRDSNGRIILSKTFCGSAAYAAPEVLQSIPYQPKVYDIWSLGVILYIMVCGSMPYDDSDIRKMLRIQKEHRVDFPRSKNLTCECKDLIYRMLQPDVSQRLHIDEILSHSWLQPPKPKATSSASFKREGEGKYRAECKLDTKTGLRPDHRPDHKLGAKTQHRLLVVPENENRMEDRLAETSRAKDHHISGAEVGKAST
Chain of Serine/threonine-protein kinase MRCK beta (Homo sapiens) (Q9Y5S2 whole entry): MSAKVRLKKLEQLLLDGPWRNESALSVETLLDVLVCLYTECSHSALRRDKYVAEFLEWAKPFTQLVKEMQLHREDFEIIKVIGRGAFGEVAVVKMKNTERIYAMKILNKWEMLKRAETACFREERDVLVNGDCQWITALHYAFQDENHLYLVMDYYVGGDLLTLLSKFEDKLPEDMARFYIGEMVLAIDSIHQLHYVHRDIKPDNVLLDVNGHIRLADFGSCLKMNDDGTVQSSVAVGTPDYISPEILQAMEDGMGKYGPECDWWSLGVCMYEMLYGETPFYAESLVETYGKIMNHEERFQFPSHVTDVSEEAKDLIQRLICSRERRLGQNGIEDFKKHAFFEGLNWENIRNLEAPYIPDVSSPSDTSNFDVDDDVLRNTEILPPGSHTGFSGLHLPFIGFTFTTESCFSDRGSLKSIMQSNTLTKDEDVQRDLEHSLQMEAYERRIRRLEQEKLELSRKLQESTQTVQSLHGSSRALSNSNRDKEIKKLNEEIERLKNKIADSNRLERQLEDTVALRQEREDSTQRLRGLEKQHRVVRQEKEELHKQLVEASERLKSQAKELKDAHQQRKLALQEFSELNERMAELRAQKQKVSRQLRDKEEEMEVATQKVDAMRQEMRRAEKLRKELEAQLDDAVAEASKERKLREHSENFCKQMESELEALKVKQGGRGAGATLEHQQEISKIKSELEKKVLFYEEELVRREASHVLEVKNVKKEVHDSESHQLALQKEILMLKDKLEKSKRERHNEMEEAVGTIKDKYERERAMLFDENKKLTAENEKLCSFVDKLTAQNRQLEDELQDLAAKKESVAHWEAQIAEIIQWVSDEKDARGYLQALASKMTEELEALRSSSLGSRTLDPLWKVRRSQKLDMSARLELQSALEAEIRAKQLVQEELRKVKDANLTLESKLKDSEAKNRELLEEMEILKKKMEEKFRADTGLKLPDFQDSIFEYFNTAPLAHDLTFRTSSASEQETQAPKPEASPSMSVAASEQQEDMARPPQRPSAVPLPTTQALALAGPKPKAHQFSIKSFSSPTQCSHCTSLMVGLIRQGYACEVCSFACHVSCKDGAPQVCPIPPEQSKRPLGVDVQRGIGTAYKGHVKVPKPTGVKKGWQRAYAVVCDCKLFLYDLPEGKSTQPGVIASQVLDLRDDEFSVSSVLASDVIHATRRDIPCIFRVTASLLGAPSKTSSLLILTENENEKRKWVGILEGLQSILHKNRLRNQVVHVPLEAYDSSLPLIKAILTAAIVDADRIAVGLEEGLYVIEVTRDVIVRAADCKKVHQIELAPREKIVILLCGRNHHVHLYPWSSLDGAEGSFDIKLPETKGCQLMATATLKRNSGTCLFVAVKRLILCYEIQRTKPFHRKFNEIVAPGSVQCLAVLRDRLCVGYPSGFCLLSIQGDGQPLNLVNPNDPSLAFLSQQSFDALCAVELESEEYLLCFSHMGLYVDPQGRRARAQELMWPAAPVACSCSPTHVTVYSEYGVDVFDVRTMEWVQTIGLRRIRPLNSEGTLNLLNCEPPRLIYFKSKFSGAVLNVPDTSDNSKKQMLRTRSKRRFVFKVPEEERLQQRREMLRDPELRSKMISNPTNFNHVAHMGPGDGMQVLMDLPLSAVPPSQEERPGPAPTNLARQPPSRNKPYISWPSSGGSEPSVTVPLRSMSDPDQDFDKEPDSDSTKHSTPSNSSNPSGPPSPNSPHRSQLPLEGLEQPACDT
Chain of Mitogen-activated protein kinase 9 (Homo sapiens) (P45984 whole entry, looked up): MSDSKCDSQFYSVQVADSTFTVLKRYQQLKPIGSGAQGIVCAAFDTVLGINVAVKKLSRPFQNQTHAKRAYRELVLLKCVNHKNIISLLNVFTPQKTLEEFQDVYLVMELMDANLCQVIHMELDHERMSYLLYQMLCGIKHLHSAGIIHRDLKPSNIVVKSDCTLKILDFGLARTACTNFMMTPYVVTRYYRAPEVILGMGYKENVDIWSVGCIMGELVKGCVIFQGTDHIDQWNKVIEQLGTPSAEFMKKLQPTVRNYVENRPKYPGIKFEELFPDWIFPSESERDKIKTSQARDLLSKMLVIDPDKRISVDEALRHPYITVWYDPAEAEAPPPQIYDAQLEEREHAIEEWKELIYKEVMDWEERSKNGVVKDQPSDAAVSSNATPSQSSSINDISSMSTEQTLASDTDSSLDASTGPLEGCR

C[C@@H]1CN(c2cc(-c3n[nH]c4ccc(OC5(C)CC5)cc34)ncn2)C[C@H](C)O1 [MLi-2]
inactive: [1] 6% | [2] 21% | [3] 10.2% | [4] 19.7% | [5] 0.194% | [6] 42.4% | [7] -3% | [8] -0.741% | [9] 7.77% | [10] 10.2% | [11] 4.34% | [12] 10.2%
